In brackets after ≈: the same amount, converted by molar mass.
Columns and labels:
Assay type in all cases: cell-based
[1] = test system: Staphylococcus aureus SG 511; test: Agar diffusion test (hole-test); conditions: SG511, 18-20 hours at 37° C., read-out: MIC, A.D.T., Staphylococcus aureus SG 511
Description: (§1) The inhibitory effect on bacteria and fungi was examined by the serial dilution test and the agar diffusion test (hole-test). As bacteria were used: Staphylococcus aureus SG 511, Streptococcus Aronson, Streptococcus pyogenes At CC 86 68; as fungi: Candida albicans AT CC 10231, Trichophyton mentagrophytes AT CC 9129 and Aspergillus niger.
1. Meat extract agar: for St. aureus SG 511
(§2) The age of the primary cultures is 24 hours for bacteria and 14 days for fungi. The standardization of the suspension of microorganisms is effected using a photometer according to Eppendorf (test tube .phi.14 mm, filter 546 nm) and a suspension for comparison consisting of barium sulfate, this suspension being created by addition of 3.0 ml of 1% barium chloride solution to 97 ml of 1% sulfuric acid. After the standardization St. aureus SG 511 was diluted 1:1000 and Sc. pyogenes and Aronson 1:100 by means of sodium chloride solution. The fungi were used in an undiluted state.
(§3) 40 mgm of the substance were put into a 10 ml measuring flask and filled up to the mark with the solvent (corresponds to a dilution of 1:250=4000 μg/ml).
(§4) The dilutions to the concentrations under test were effected with distilled water or the respective solvent.
(§5) 19 ml of the nutrient medium were filled into sterile Petri dishes of a diameter of 8 cm and dried. Subsequently the agar plates were charged with 4 ml of seed agar. 100 ml of seed agar contain 1.25 ml of the suspension of microorganisms, an agar plate thus containing 0.05 ml of the suspension of microorganisms. After solidification of the agar, 5 holes of a diameter of 5 mm were punched into the plates and filled with 0.05 ml of the correspondingly concentrated substance solution.
(§6) Control tests merely using the solvent are to be carried out simultaneously.
(§7) Bacteria were incubated at 37° C. for 18-20 hours and fungi at 27° C. for 7 days.
(§8) The diameter of the area of inhibition in mm was measured after having deducted the diameter of the hole.

[2] = test system: Streptococcus pyogenes At CC 86 68; test: Agar diffusion test (hole-test); conditions: ATCC8668, 18-20 hours at 37° C., read-out: MIC, A.D.T., Streptococcus pyogenes
Description: as §1
(§9) 2. Glucose agar: for Sc. Aronson and St. pyogenes Recipe see meat extract agar. After sterilization 1 weight percent of glucose is added as a sterile 50% solution.
as §2, §3, §4, §5, §6, §7, §8

[3] = test system: Streptococcus Aronson; test: Agar diffusion test (hole-test); conditions: 18-20 hours at 37° C., read-out: MIC, A.D.T., Streptococcus Aronson
Description: as §1, §9, §2, §3, §4, §5, §6, §7, §8

[4] = test system: Staphylococcus aureus SG 511; test: Serial dilution test; conditions: for MIC: Staphylococcus aureus, SG511, 18-20 hours at 37° C., read-out: MIC, S.D.T., Staphylococcus aureus SG 511
Description: as §1
1. Meat extract broth: for St. aureus SG 511
(§10) The age of the primary cultures is 24 hours for bacteria and 14 days for fungi. The standardization of the suspension of microorganisms is effected using a photometer according to Eppendorf (test tube .phi.14 mm, filter 546 nm) and a suspension for comparison consisting of barium sulfate, this suspension being created by adition of 3.0 ml of 1% barium chloride solution to 97 ml of 1% sulfuric acid. After the standardization the bacteria were further diluted to a concentration of 1:1000 by means of sodium chloride solution, the fungi were used in an undiluted state.
(§11) 40 mgm of the substance were put into a 10 ml measuring flask and filled up to the mark with the solvent (corresponds to a dilution of 1:250=4000 μg/ml). The further dilution series was standardized with distilled water or the respective solvent and the following substance concentrations were prepared: 1000; 250; 62.5 μg/ml.
(§12) The tubes were filled with 4.9 ml of the corresponding liquid nutrient medium. Then 0.1 ml of the substance dilution prepared above was added to each tube, so that the mentioned final concentrations were present. Finally each tube was inoculated with 0.1 ml of the standardized suspension of microorganisms. Control tests merely using the solvent are to be carried out simultaneously.
as §7
(§13) The measurement is carried out macroscopically defining the minimal inhibitory concentration (the lowest still microbiostatically effective concentration).

[5] = test system: HeLa-cell culture; test: Inhibition of HeLa cell cultures; conditions: Homo sapiens, 72 h, 37° C. for 3 days, 5% carbon dioxide; for IC50: read-out: ED50, HeLa cell culture; for minimal effective concentration: read-out: Minimal inhibitory concentration, HeLa cell culture
Description: Measurement of the inhibition of cell cultures
HeLa-cell culture was treated with trypsin and adjusted to a cell number of 150,000 cells/ml of fresh medium. The substance was always dissolved in the same quantity of dimethyl sulfoxide and then further diluted with growth medium. 0.1 ml of the substance-dilutions were added to each well of microtiter plates and then 0.2 ml of cell suspension were added (4 wells per dilution). Several growth controls containing 0.1 ml of growth medium instead of 0.1 ml of substance dilution were put up. After careful mixing, the cultures were incubated at 37° C. for 3 days in a 5% carbon dioxide atmosphere. The reading was effected in comparison with these controls. The results were given as the percentage of the deficiency and degeneration compared to the growth control. […] The statements are referred to μg of substance per ml of total medium.

[6] = test system: Streptococcus pyogenes At CC 86 68; test: Serial dilution test; conditions: for MIC: Streptococcus pyogenes, ATCC8668, 18-20 hours at 37° C., read-out: MIC, S.D.T., Streptococcus pyogenes
Description: as §1
(§14) 2. Glucose broth: for Sc. Aronson and St. pyogenes Recipe see meat extract broth. After sterilization 1 weight percent of glucose is added as a sterile 50% solution.
as §10, §11, §12, §7, §13

[7] = test system: Streptococcus Aronson; test: Serial dilution test; conditions: Streptococcus, 18-20 hours at 37° C., read-out: MIC, S.D.T., Streptococcus Aronson
Description: as §1, §14, §10, §11, §12, §7, §13

[8] = test system: Corynebacterium acnes; test: Serial dilution test for Corynebacterium acnes; conditions: for MIC: Cutibacterium acnes, 37° C. for 48 hours, read-out: MIC, S.D.T., Corynebacterium acnes
Description: Serial dilution test for Corynebacterium acnes and Pityrosporum ovale Nutrient medium
For Corynebacterium acnes: thioglycolate-broth for Pityrosporum ovale: Littmann's broth, 5 ml per tube.
Suspension of microorganisms in 0.9% sodium chloride solution, standardized using a photometer according to Eppendorf by means of a suspension for comparison consisting of barium sulfate, for Corynebacterium acnes in a dilution of 1:100, for Pityrosporum ovale in an undiluted state. 0.1 ml of the suspensions was used per test tube. Dimethyl sulfoxide served as a solvent for the substances.
The suspension with Corynebacteria acnes was incubated at 37° C. for 48 hours, the suspension of Pityrosporum ovale at 27° C. for 7 days. The reading was effected by macroscopic evaluation of the growth of microorganisms and registration of the minimal inhibitory concentration.

[9] = reduced growth at this concentration

Question: What does the source list for `CC(C)CCc1cc(C(=O)C(F)(F)F)c(O)cc1O` [G, 2,4-Dihydroxy-5-iso-pentyl-trifluoroacetophenone]?
Answer: MIC [1]: ≤ 15.6 µg/mL; MIC [2]: ≤ 15.6 µg/mL; MIC [3]: ≤ 15.6 µg/mL; MIC [4]: 0.31 µg/mL (≈ 1.12 µM); IC50 [5]: 5.8 µg/mL (≈ 21 µM); minimal effective concentration [5]: 0.78 µg/mL; MIC [6]: 0.31 µg/mL (≈ 1.12 µM); MIC [7]: 1.25 µg/mL (≈ 4.52 µM); MIC [8]: 1.25 µg/mL (≈ 4.52 µM)

Question: `CC1CC(C)CC(c2cc(C(=O)C(F)(F)F)c(O)cc2O)C1` (stereo not drawn) [I, 2,4-Dihydroxy-5-(3',5'-dimethyl)-cyclohexyl-tri-fluoroacetophenone] was tested. Which MIC [1] did it give?
Answer: ≤ 15.6 µg/mL

Question: And the MIC [2]?
Answer: ≤ 15.6 µg/mL

Question: What about the MIC [3] of the same molecule?
Answer: ≤ 15.6 µg/mL

Question: What about the MIC [4] of the same molecule?
Answer: 0.31 µg/mL (≈ 0.98 µM)

Question: What about the MIC [6] of the same molecule?
Answer: 0.31 µg/mL (≈ 0.98 µM)

Question: And the MIC [7]?
Answer: 0.08 µg/mL (≈ 0.253 µM)

Question: And the MIC [8]?
Answer: 0.08 µg/mL (≈ 0.253 µM)

Question: What does the source list for `CCCCCCCCCc1cc(C(=O)C(F)(F)F)c(O)cc1O` [J, 2,4-Dihydroxy-5-n-nonyl-trifluoroacetophenone]?
Answer: MIC [1]: ≤ 15.6 µg/mL; MIC [2]: ≤ 15.6 µg/mL; MIC [3]: ≤ 15.6 µg/mL; MIC [4]: 5 µg/mL (≈ 15 µM); Concentration with reduced growth (value in brackets), S.D.T., Staphylococcus aureus SG 511 [4, 9]: 1.25 µg/mL; MIC [6]: 1.25 µg/mL (≈ 3.76 µM); Concentration with reduced growth (value in brackets), S.D.T., Streptococcus pyogenes [6, 9]: 0.08 µg/mL; MIC [7]: 5 µg/mL (≈ 15 µM); MIC [8]: 0.02 µg/mL (≈ 0.0602 µM)

Question: How did the MIC [1] turn out when `CCCCC(C)c1c(O)ccc(C(=O)C(F)(F)F)c1O` (stereo not drawn) [K] was run?
Answer: ≤ 15.6 µg/mL

Question: And the MIC [2]?
Answer: ≤ 15.6 µg/mL

Question: What about the MIC [3] of the same molecule?
Answer: ≤ 15.6 µg/mL

Question: What about the MIC [4] of the same molecule?
Answer: 1.25 µg/mL (≈ 4.31 µM)

Question: And the IC50 [5]?
Answer: 2.27 µg/mL (≈ 7.82 µM)

Question: And the minimal effective concentration [5]?
Answer: 0.78 µg/mL

Question: What about the MIC [6] of the same molecule?
Answer: 0.31 µg/mL (≈ 1.07 µM)

Question: And the MIC [7]?
Answer: 1.25 µg/mL (≈ 4.31 µM)

Question: And the MIC [8]?
Answer: 0.08 µg/mL (≈ 0.276 µM)

Question: Which results are given for `O=C(c1ccc(O)c(C2CCCCCCCCCCC2)c1O)C(F)(F)F` [L, 2,4-Dihydroxy-3-cyclododecyl-trifluoroacetophenone]?
Answer: MIC [1]: 62.5 µg/mL (≈ 168 µM); MIC [2]: 62.5 µg/mL (≈ 168 µM); MIC [3]: ≤ 15.6 µg/mL; MIC [4]: 0.31 µg/mL (≈ 0.832 µM); MIC [6]: 0.08 µg/mL (≈ 0.215 µM); MIC [7]: 0.31 µg/mL (≈ 0.832 µM); MIC [8]: 1.25 µg/mL (≈ 3.36 µM); Concentration with reduced growth (value in brackets), S.D.T., Corynebacterium acnes [8, 9]: 0.31 µg/mL
